{"source": "paper PMC7982615", "about": "“Phase 1 study of telisotuzumab vedotin in Japanese patients with advanced solid tumors” (Cancer Medicine, 2021)", "key": {"[1]": {"experiment": "Pharmacokinetics of teliso‐v conjugate and MMAE, noncompartmental", "assay_type": "in vivo, human", "details": "for AUCinf, conjugate / Cmax, conjugate: geometric mean (%CV); for t1/2, conjugate: harmonic mean (min-max); for Tmax, conjugate: median (min-max)", "procedure": "PK samples were also collected on cycles 2 and 4 predose and approximately 30 minutes after the end of infusion on day 1. PK parameters such as peak concentration (Cmax), time to peak concentration, area under the concentration‐time curve (AUC), and terminal half‐life (t1/2) were determined using noncompartmental methods."}, "[2]": {"test_system": "advanced solid tumors", "details": "cited from earlier work"}, "[3]": {"test_system": "advanced solid tumors", "experiment": "Preliminary antitumor activity, RECIST version 1.1", "assay_type": "in vivo, human", "details": "for PFS estimate at 6 months / Median PFS / Median duration of overall response / PFS estimate at 9 months: [95% CI]; for Median PFS: Kaplan–Meier", "source_text": "Evaluation of tumor response to determine the objective response rate (ORR), progression‐free survival (PFS), and duration of response was based on RECIST version 1.1 criteria.\nAll data were summarized and tabulated by dose cohort. Categoric data were summarized in terms of frequency counts and percentages. Continuous data were summarized using descriptive statistics, including number of observations, mean, standard deviation, median, minimum, and maximum. No formal statistical analysis was performed for efficacy variables, which were all exploratory in nature. ORR was defined as the proportion of patients with a confirmed partial response (PR) or complete response (CR). Duration of response was defined as time from a patient's initial objective response to the first date of disease progression (PD) or death. The overall disease control rate was defined as the proportion of patients with CR, PR, or stable disease (SD). […] PFS was estimated using the Kaplan–Meier method. Efficacy analyses are presented with two‐sided exact 95% binomial CI."}, "[4]": {"details": "first administration, cycle 1, across 2.4 and 2.7 mg/kg"}, "[5]": {"details": "total, N = 9, listed as telisotuzumab vedotin"}, "[6]": {"details": "total, N = 9, listed as teliso-v"}}, "note": "Where two headings read alike, the source gives them in different places.", "data": [{"substance": "Teliso‐v: antibody‐drug conjugate: anti–c‐Met humanized monoclonal antibody ABT‐700 coupled to monomethyl auristatin E through a valine‐citrulline linker, drug:antibody ratio approximately three", "values": [{"measurement": "Dose proportionality of systemic exposure", "setting": "[1]; 2.4 and 2.7 mg/kg, cycle 1", "result": "approximately dose proportional"}, {"measurement": "t1/2", "setting": "[1]; N = 9, both dose levels", "result": "72 to 96", "unit": "h"}, {"measurement": "AUCinf, conjugate", "setting": "[1]; cycle 1, 2.4 mg/kg IV, n = 3", "result": "4437 (19) µg*h/mL"}, {"measurement": "Cmax, conjugate", "setting": "[1]; cycle 1, 2.4 mg/kg IV, n = 3", "result": "55.5 (26) µg/mL"}, {"measurement": "t1/2, conjugate", "setting": "[1]; cycle 1, 2.4 mg/kg IV, n = 3", "result": "4.18 (3.8–4.7) days"}, {"measurement": "Tmax, conjugate", "setting": "[1]; cycle 1, 2.4 mg/kg IV, n = 3", "result": "1 (1–1) h"}, {"measurement": "AUCinf, conjugate", "setting": "[1]; cycle 1, 2.7 mg/kg IV, n = 6", "result": "5202 (23) µg*h/mL"}, {"measurement": "Cmax, conjugate", "setting": "[1]; cycle 1, 2.7 mg/kg IV, n = 6", "result": "63.0 (22) µg/mL"}, {"measurement": "t1/2, conjugate", "setting": "[1]; cycle 1, 2.7 mg/kg IV, n = 6", "result": "2.91 (2.5–3.9) days"}, {"measurement": "Tmax, conjugate", "setting": "[1]; cycle 1, 2.7 mg/kg IV, n = 6", "result": "1 (1–1) h"}, {"measurement": "AUC from zero to infinity, preliminary geometric mean", "setting": "[1]; [4]", "result": "4,400–5,200 µg*h/ml"}, {"measurement": "Serum Cmax, preliminary geometric mean", "setting": "[1]; [4]", "result": "55.5 to 63.0", "unit": "µg/mL"}, {"measurement": "Accumulation in cycle 3", "setting": "[1]; multiple dosing Q3 W", "result": "1.1–1.2 fold"}, {"measurement": "Tolerability", "setting": "[2]; 2.7 mg/kg Q3 W", "result": "well tolerated"}, {"measurement": "Patients with PR", "setting": "[2]; c‐Met‐positive NSCLC", "result": "three of 14"}, {"measurement": "Recommended phase 2 dose (RP2D)", "setting": "[2]; every 3 weeks, preceding phase 1 study outside of Japan", "result": 2.7, "unit": "mg/kg"}, {"measurement": "Frequency of corneal epithelium disorder", "setting": "[2]; non‐Japanese patients, nine of 116, teliso‐v monotherapy, ref data on file", "result": 7.8, "unit": "%"}, {"measurement": "Complete response", "setting": "[3]; 2.4 mg/kg Q3W, n = 3", "result": "0 n (%)"}, {"measurement": "Disease control rate", "setting": "[3]; 2.4 mg/kg Q3W, n = 3", "result": "3 (100) [NA] n (%) [95% CI]"}, {"measurement": "Objective response rate", "setting": "[3]; 2.4 mg/kg Q3W, n = 3", "result": "0 n (%)"}, {"measurement": "Partial response", "setting": "[3]; 2.4 mg/kg Q3W, n = 3", "result": "0 n (%)"}, {"measurement": "Progressive disease", "setting": "[3]; 2.4 mg/kg Q3W, n = 3", "result": "0 n (%)"}, {"measurement": "Stable disease", "setting": "[3]; 2.4 mg/kg Q3W, n = 3", "result": "3 (100) n (%)"}, {"measurement": "PFS estimate at 6 months", "setting": "[3]; 2.4 mg/kg Q3W, n = 3", "result": "33.3 [0.9–77.4] %"}, {"measurement": "Median PFS", "setting": "[3]; 2.4 mg/kg Q3W, n = 3", "result": "4.1 [2.8–7.1] months"}, {"measurement": "Complete response", "setting": "[3]; 2.7 mg/kg Q3W, n = 6", "result": "0 n (%)"}, {"measurement": "Objective response rate", "setting": "[3]; 2.7 mg/kg Q3W, n = 6", "result": "2 (33) n (%)"}, {"measurement": "Partial response", "setting": "[3]; 2.7 mg/kg Q3W, n = 6", "result": "2 (33) n (%)"}, {"measurement": "Progressive disease", "setting": "[3]; 2.7 mg/kg Q3W, n = 6", "result": "1 (17) n (%)"}, {"measurement": "Stable disease", "setting": "[3]; 2.7 mg/kg Q3W, n = 6", "result": "3 (50) n (%)"}, {"measurement": "Median duration of overall response", "setting": "[3]; 2.7 mg/kg Q3W, n = 6", "result": "8.2 [7.2–9.1] months"}, {"measurement": "PFS estimate at 6 months", "setting": "[3]; 2.7 mg/kg Q3W, n = 6", "result": "83.3 [27.3–97.5] %"}, {"measurement": "PFS estimate at 9 months", "setting": "[3]; 2.7 mg/kg Q3W, n = 6", "result": "83.3 [27.3–97.5] %"}, {"measurement": "Median PFS", "setting": "[3]; 2.7 mg/kg Q3W, n = 6", "result": "10.4 [1.2–12.0] months"}, {"measurement": "Patients with PD", "setting": "[3]; N = 9", "result": "one"}, {"measurement": "Patients with SD", "setting": "[3]; N = 9", "result": "six"}, {"measurement": "Patients with PR", "setting": "[3]; N = 9, both at 2.7‐mg/kg (urothelial, ovarian cancer)", "result": "Two"}, {"measurement": "Reduction of sum of the tumor size", "setting": "[3]; single patient, 27 weeks after teliso-v initiation", "result": 73, "unit": "%"}, {"measurement": "Sum of the tumor size", "setting": "[3]; single patient, lung metastasis, 27 weeks after teliso-v initiation, baseline 64.4 mm", "result": 17.3, "unit": "mm"}, {"measurement": "Patients with reduction in tumor size from baseline", "setting": "[3]; thymic cancer, NSCLC, ovarian cancer, urothelial cancer", "result": "Four"}, {"measurement": "Complete response", "setting": "[3]; total, N = 9", "result": "0 n (%)"}, {"measurement": "Objective response rate", "setting": "[3]; total, N = 9", "result": "2 (22) n (%)"}, {"measurement": "Overall disease control rate", "setting": "[3]; total, N = 9", "result": 89, "unit": "%"}, {"measurement": "PFS estimate at 6 months", "setting": "[3]; total, N = 9", "result": "64.0 [23.8–86.6] %"}, {"measurement": "PFS estimate at 9 months", "setting": "[3]; total, N = 9", "result": "48.0 [12.3–76.9] %"}, {"measurement": "Median PFS", "setting": "[3]; total, N = 9", "result": "7.1 [1.2–10.4] months"}, {"measurement": "Median PFS", "setting": "[3]; [5]", "result": 7.1, "unit": "months"}, {"measurement": "Median duration of overall response", "setting": "[3]; [6]", "result": "8.2 [7.2–9.1] months"}, {"measurement": "Median duration of overall response", "setting": "[3]; total, N = 9, listed as teliso‐v", "result": 8.2, "unit": "months"}, {"measurement": "Partial response", "setting": "[3]; [6]", "result": "2 (22) n (%)"}, {"measurement": "Progressive disease", "setting": "[3]; [6]", "result": "1 (11) n (%)"}, {"measurement": "Stable disease", "setting": "[3]; [6]", "result": "6 (67) n (%)"}, {"measurement": "Partial response", "setting": "[3]; [5]", "result": 22, "unit": "%"}, {"measurement": "Progressive disease", "setting": "[3]; [5]", "result": 11, "unit": "%"}, {"measurement": "Stable disease", "setting": "[3]; [5]", "result": 67, "unit": "%"}]}]}
